{"source": "patent US10264787B1", "about": "“Natural mosquito larvicide” (BIOVECBLOK, s.r.l., priority 2017, dated 2019)", "test_system": "Larvae and pupae of Anopheles gambiae, An. stephensi, Aedes albopictus and Ae. aegypti", "details": "after 24 hours post application; 0.03 g tyrosine in 200 ml breeding water; first to fourth-instar larvae", "method": "The pre-adult developmental stages were grown under these conditions: 28° C., 80% relative humidity and a photoperiod of 12 h light followed by 12 h dark.\nMosquito larvicidal/pupicidal tests were carried out based on the WHO standardized procedures and guidelines for larvicidal assay.\nFor each mosquito species, 24 hours before the assay to reduce the larval stress, we prepared 6 trays [15 cm (width), 15 cm (length) and 6.5 cm (deep)] one for each tested products, containing 200 ml of breeding water which includes 40 mosquito larvae (first, second, third, fourth-instars) and 10 pupae. Each assay comprised of 3 replicates.\nMortality was recorded every 30 minutes from beginning for the pre-adult developmental stages (larvae and pupe). […] The dead larvae and pupae were recorded, and the average percentage mortality was calculated.", "data": [{"smiles": "N[C@@H](Cc1ccc(O)cc1)C(=O)O", "note": "[tyrosine]", "values": [{"measurement": "larval mortality", "value": "about 60%"}]}]}
